Assay results published in patent publication US20070299072A1, “KV1.5 POTASSIUM CHANNEL INHIBITORS” (Wyeth, priority 2006, published 2007).

Legend:
Assay type in all cases: cell-based
Kv1.5 = molecular target: T1, Kv1.5 (Homo sapiens, UniProt P22460); assay: Kv1.5 Patch Clamp EP (whole cell patch clamp; single point at 1 μM and IC50); settings: for inhibition at 1 µM: single point at 1.0 μM, Kv1.5 stably over expressed in HEK or LTK- cells; for IC50: concentration response
T1 construct: expressed in transfected cells; host or cells: HEK or LTK- cells
Method: The external solution is standard Tyrodes solution. […] Inhibition was measured at the end of the 1 second pulses and expressed relative to controls. Initial Kv1.5 inhibition is estimated by single point determinations done at 1 μM.

L-type calcium channels = assay: FLIPR L-type Calcium Channel Assay (calcium influx in HL-1 cells after KCl); settings: read-out: L-type Ca2+ IC50
Method: HL-1 cells expressing endogenous L-type calcium channels are removed from culture flasks using trypsin, plated on fibronectin/gelatin-coated, clear-bottomed, black-walled 96-well microplates in Claycomb media (JRH Biosciences #51800) containing 10% fetal bovine serum, 4 mM L-glutamine, and 10 μM norepinephrine, and grown to confluency overnight. The next day, growth medium is aspirated from confluent cell monolayers and replaced with 100 μL per well Tyrode's solution (in mM: 130 NaCl, 4 KCl, 1.8 CaCl2, 1.0 MgCl2, 20 HEPES, 10 glucose, pH 7.35) and 50 μL per well FLIPR Calcium Assay kit, component A (#R-8033, Molecular Devices Corporation) and incubated for 60 min. in a 5% CO2 37° C. incubator. 50 μL per well test compounds are added to the plates and further incubated for 15 min. in a 5% CO2 37° C. incubator. All final solutions contain the anion exchange inhibitor, probenecid (2.5 mM). The 96-well plates are then placed in the center position of the FLIPR 1 (Fluorometric Imaging Plate Reader, Molecular Devices Corporation). Cell monolayers in each well are simultaneously illuminated at 488 nm with an Argon ion laser, and fluorescence emission is monitored using a 510-570 nm bandpass filter and a cooled CCD camera. To depolarize the plasma membrane and activate L-type calcium channels, 50 μL per well of 20 mM KCl (final concentration) are dispensed simultaneously to all 96 wells using the FLIPR's automatic 96-well pipettor. Fluorescence measurements are captured for 5 min. following KCl addition. Calcium influx, expressed as % control, is calculated for each concentration of test compound and concentration-response curves and IC50 values are generated using GraphPad Prism 4.0.

HERG = molecular target: T2, HERG (Homo sapiens, UniProt Q12809); assay: HERG Patch Clamp EP (whole cell patch clamp, tail currents; single point at 10 μM and IC50); settings: for inhibition at 10 µM: human, HEK cells stably overexpressing HERG, single point at 10 μM, HERG in HEK cells, read-out: HERG % Inhib. @ 10 μM; for IC50: concentration response
T2 construct: expressed in transfected cells; host or cells: HEK cells
Text: The external solution is standard Tyrodes solution.

T2 sequence (Q12809 whole entry): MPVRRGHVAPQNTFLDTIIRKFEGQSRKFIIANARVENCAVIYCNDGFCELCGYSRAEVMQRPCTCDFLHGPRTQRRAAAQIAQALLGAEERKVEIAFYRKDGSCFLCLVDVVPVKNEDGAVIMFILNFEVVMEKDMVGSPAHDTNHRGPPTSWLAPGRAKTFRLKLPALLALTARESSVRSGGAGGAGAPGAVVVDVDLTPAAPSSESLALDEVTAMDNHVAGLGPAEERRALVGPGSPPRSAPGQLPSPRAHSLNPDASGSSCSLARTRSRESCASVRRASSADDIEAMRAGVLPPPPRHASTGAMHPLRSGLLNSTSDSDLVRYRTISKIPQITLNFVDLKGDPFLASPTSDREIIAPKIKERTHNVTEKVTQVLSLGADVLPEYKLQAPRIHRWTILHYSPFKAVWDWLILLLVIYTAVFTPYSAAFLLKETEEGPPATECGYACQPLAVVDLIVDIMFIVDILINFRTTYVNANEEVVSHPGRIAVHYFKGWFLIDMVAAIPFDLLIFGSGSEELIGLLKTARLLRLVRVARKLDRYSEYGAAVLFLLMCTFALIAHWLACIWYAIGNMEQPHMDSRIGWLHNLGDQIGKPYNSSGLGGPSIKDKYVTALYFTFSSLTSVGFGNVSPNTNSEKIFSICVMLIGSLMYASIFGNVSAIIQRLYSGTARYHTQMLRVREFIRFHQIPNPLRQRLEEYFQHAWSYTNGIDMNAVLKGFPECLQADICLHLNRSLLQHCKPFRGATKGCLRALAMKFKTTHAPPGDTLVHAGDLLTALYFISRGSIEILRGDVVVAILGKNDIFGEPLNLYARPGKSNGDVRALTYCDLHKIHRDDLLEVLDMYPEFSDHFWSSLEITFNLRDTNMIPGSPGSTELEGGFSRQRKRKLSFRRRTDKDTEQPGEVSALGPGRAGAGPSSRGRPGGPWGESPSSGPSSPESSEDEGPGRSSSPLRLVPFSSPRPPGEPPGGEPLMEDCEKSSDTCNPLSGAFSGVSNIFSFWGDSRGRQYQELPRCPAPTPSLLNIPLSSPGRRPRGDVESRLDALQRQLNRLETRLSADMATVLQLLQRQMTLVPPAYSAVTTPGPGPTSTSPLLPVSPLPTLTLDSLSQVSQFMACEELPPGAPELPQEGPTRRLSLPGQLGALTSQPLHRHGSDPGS
T1 sequence (P22460 whole entry): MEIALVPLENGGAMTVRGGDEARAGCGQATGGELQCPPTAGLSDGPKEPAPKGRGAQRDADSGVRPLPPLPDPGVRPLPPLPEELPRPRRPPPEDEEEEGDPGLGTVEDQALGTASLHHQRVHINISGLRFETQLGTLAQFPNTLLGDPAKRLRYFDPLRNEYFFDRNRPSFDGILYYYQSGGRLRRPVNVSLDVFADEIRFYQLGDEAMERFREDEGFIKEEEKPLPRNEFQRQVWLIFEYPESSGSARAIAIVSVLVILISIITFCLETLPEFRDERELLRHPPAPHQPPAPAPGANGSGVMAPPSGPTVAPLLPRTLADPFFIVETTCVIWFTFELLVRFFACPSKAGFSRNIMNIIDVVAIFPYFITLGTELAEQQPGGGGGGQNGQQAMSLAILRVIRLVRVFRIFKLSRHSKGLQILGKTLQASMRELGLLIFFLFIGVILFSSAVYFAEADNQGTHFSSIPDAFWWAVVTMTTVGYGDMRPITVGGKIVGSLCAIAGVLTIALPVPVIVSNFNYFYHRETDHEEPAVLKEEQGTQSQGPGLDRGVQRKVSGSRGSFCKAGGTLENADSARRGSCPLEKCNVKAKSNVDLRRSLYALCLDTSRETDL

inhibition at 1 µM (Kv1.5) [%] | IC50 (L-type calcium channels) [µM] | IC50 (Kv1.5) [µM] | SMILES | inhibition at 10 µM (HERG) [%] | IC50 (HERG) [µM]
87 | 12 | – | CCN(CC)c1ccc(C2N(CCc3ccc(OC)cc3)C(=O)C3(CCN(C(N)=O)CC3)N2C)cc1 (centres unmarked) [Compound 10, 2-[4-(Diethylamino)phenyl]-3-[2-(4-methoxyphenyl)ethyl]-1-methyl-4-oxo-1,3,8-triaza-spiro[4.5]decane-8-carboxylic acid amide] | 5 | –
70 | 8 | 0.611 | COc1ccc(CCN2C(=O)C3(CCN(C(N)=O)CC3)N(C)C2c2ccc(C(C)(C)C)cc2)cc1 (centres unmarked) [Compound 12, 2-(4-tert-Butylphenyl)-3-[2-(4-methoxyphenyl)ethyl]-1-methyl-4-oxo-1,3,8-triaza-spiro[4.5]decane-8-carboxylic acid amide] | 40 | –
59 | 15 | – | CN1C(c2ccc(C3CC3)cc2)N(CCc2ccc(OC(F)(F)F)cc2)C(=O)C12CCN(C(N)=O)CC2 (centres unmarked) [Compound 14, 2-(4-Cyclopropylphenyl)-3-[2-(4-trifluoromethoxyphenyl)ethyl]-1-methyl-4-oxo-1,3,8-triaza-spiro[4.5]decane-8-carboxylic acid amide] | 75 | –
92 | 13 | 0.319 | COc1ccc(CCN2C(=O)C3(CCN(C(=O)NC(C)C)CC3)N(C)C2c2ccc(C3CC3)cc2)cc1 (centres unmarked) [Compound 16, 2-(4-Cyclopropylphenyl)-3-[2-(4-methoxyphenyl)ethyl]-1-methyl-4-oxo-1,3,8-triaza-spiro[4.5]decane-8-carboxylic acid isopropylamide] | 48 | –
93 | 8 | 0.186 | COc1ccc(CCN2C(=O)C3(CCN(C(=O)NC4CCCC4)CC3)N(C)C2c2ccc(C3CC3)cc2)cc1 (centres unmarked) [Compound 20, 2-(4-Cyclopropylphenyl)-3-[2-(4-methoxyphenyl)ethyl]-1-methyl-4-oxo-1,3,8-triaza-spiro[4.5]decane-8-carboxylic acid cyclopentylamide] | 86 | 4
97 | 11 | – | COc1ccc(CCN2C(=O)C3(CCN(C(=O)N4CCC4)CC3)N(C)C2c2ccc(C3CC3)cc2)cc1 (centres unmarked) [Compound 21, 2-(4-cyclopropylphenyl)-3-[2-(4-methoxyphenyl)ethyl]-1-methyl-8-(azetidin-1-ylcarbonyl)-1,3,8-triaza-spiro[4.5]decan-4-one] | 54 | –
51 | 18 | – | COc1ccc(CCN2C(=O)C3(CCN(C(=O)N4CCN(C)CC4)CC3)N(C)C2c2ccc(C3CC3)cc2)cc1 (centres unmarked) [Compound 22, 2-(4-Cyclopropylphenyl)-3-[2-(4-methoxyphenyl)ethyl]-1-methyl-8-[(4-methylpiperazin-1-yl)carbonyl]-1,3,8-triaza-spiro[4.5]decan-4-one] | 58 | –
96 | 6.6 | 0.181 | COc1ccc(CCN2C(=O)C3(CCN(C(=O)N4CCCC4)CC3)N(C)C2c2ccc(C3CC3)cc2)cc1 (centres unmarked) [Compound 23, 2-(4-Cyclopropylphenyl)-3-[2-(4-methoxyphenyl)ethyl]-1-methyl-8-(pyrrolidin-1-ylcarbonyl)-1,3,8-triaza-spiro[4.5]decan-4-one] | 77 | 6.2
82 | 13 | – | COc1ccc(CCN2C(=O)C3(CCN(C(=O)N4CCOCC4)CC3)N(C)C2c2ccc(C3CC3)cc2)cc1 (centres unmarked) [Compound 24, 2-(4-Cyclopropylphenyl)-3-[2-(4-methoxyphenyl)ethyl]-1-methyl-8-(morpholin-4-ylcarbonyl)-1,3,8-triaza-spiro[4.5]decan-4-one] | 27 | –
82 | 17 | – | CONC(=O)N1CCC2(CC1)C(=O)N(CCc1ccc(OC)cc1)C(c1ccc(C3CC3)cc1)N2C (centres unmarked) [Compound 25, 2-(4-cyclopropylphenyl)-N-methoxy-3-[2-(4-methoxyphenyl)ethyl]-1-methyl-4-oxo-1,3,8-triazaspiro[4.5]decane-8-carboxamide] | 23 | –
65 | 24 | – | COc1ccc(CCN2C(=O)C3(CCN(C(=O)NO)CC3)N(C)C2c2ccc(C3CC3)cc2)cc1 (centres unmarked) [Compound 26, 2-(4-Cyclopropylphenyl)-N-hydroxy-3-[2-(4-methoxyphenyl)ethyl]-1-methyl-4-oxo-1,3,8-triazaspiro[4.5]decane-8-carboxamide] | 5 | –
87 | 20 | – | CCONC(=O)N1CCC2(CC1)C(=O)N(CCc1ccc(OC)cc1)C(c1ccc(C3CC3)cc1)N2C (centres unmarked) [Compound 27, 2-(4-cyclopropylphenyl)-N-ethoxy-3-(4-methoxyphenethyl)-1-methyl-4-oxo-1,3,8-triazaspiro[4.5]decane-8-carboxamide] | 35 | –
83 | 8 | – | COc1ccc(CCN2C(=O)C3(CCN(C(=O)NNC(=O)OC(C)(C)C)CC3)N(C)C2c2ccc(C3CC3)cc2)cc1 (centres unmarked) [Compound 29, tert-Butyl 2-({2-(4-cyclopropylphenyl)-3-[2-(4-methoxyphenyl)ethyl]-1-methyl-4-oxo-1,3,8-triazaspiro[4.5]dec-8-yl}carbonyl)hydrazine carboxylate] | 31 | –
93 | 21 | 0.166 | COc1ccc(CCN2C(=O)C3(CCN(C(N)=NC#N)CC3)N(C)C2c2ccc(OC)cc2)cc1 (centres unmarked) [Compound 30, N′-cyano-2-(4-methoxyphenyl)-3-[2-(4-methoxyphenyl)ethyl]-1-methyl-4-oxo-1,3,8-triazaspiro[4.5]decane-8-carboximidamide] | 91 | 6
75 | 26 | – | COc1ccc(CCN2C(=O)C3(CCN(C(N)=NC#N)CC3)N(C)C2c2ccc(C3CC3)cc2)cc1 (centres unmarked) [Compound 31, 8-(Cyano-1-carboxamidine)-2-(4-cyclopropylphenyl)-3-[2-(4-methoxyphenyl)-ethyl]-1-methyl-1,3,8-triaza-spiro[4.5]decan-4-one] | 25 | –
90 | 13 | – | COc1ccc(CCN2C(=O)C3(CCN(S(C)(=O)=O)CC3)N(C)C2c2ccc(C3CC3)cc2)cc1 (centres unmarked) [Compound 32, 2-(4-cyclopropylphenyl)-8-methanesulfonyl-3-[2-(4-methoxy-phenyl)ethyl]-1-methyl-1,3,8-triaza-spiro[4.5]decan-4-one] | 57 | –
80 | 25 | – | COc1ccc(CCN2C(=O)C3(CCN(S(C)(=O)=O)CC3)N(C)C2c2ccc(C(C)(C)C)cc2)cc1 (centres unmarked) [Compound 33, 2-(4-tert-Butylphenyl)-8-methanesulfonyl-3-[2-(4-methoxyphenyl)ethyl]-1-methyl-1,3,8-triaza-spiro[4.5]decan-4-one] | 54 | –
80 | 18 | – | COc1ccc(CCN2C(=O)C3(CCN(S(C)(=O)=O)CC3)N(C)C2c2ccc(C(F)(F)F)cc2)cc1 (centres unmarked) [Compound 34, 2-(4-Trifluoromethylphenyl)-8-methanesulfonyl-3-[2-(4-methoxyphenyl)ethyl]-1-methyl-1,3,8-triaza-spiro[4.5]decan-4-one] | 50 | –
96 | 30 | – | CCOC(=O)N1CCC2(CC1)C(=O)N(CCc1ccc(OC)cc1)C(c1ccc(C3CC3)cc1)N2C (centres unmarked) [Compound 35, Ethyl 2-(4-cyclopropylphenyl)-3-[2-(4-methoxyphenyl)ethyl]-1-methyl-4-oxo-1,3,8-triazaspiro[4.5]decane-8-carboxylate] | 65 | –
83 | 14 | – | COc1ccc(CCN2C(=O)C3(CCN(C(=O)OC(C)(C)C)CC3)N(C)C2c2ccc(OC)cc2)cc1 (centres unmarked) [Compound 37, tert-Butyl 2-(4-methoxyphenyl)-3-[2-(4-methoxyphenyl)ethyl]-1-methyl-4-oxo-1,3,8-triazaspiro[4.5]decane-8-carboxylate] | 12 | –
94 | 23 | – | COc1ccc(CCN2C(=O)C3(CCN(C(=O)c4ccno4)CC3)N(C)C2c2ccc(C3CC3)cc2)cc1 (centres unmarked) [Compound 42, 2-(4-Cyclopropylphenyl)-8-(isoxazol-5-yl-carbonyl)-3-[2-(4-methoxyphenyl)ethyl]-1-methyl-1,3,8-triazaspiro[4.5]decan-4-one] | 81 | –
